Data on 21 compounds can be found in ChEMBL document CHEMBL3046399, “Microwave assisted synthesis of novel pyrimidine derivatives and investigation of their analgesic and ulcerogenic activity” (Med Chem Res, 2012).

Data set [1] concerns Mus musculus. In words: Analgesic activity in Mus musculus Swiss albino (mouse) assessed as protection against acetic acid-induced writhing response at 20 mg/kg, po administered 30 min prior to acetic acid challenge measured at 2 hr relative to control. It counts as functional.
Data set [2] relates to Mus musculus. Put plainly: Analgesic activity in Mus musculus Swiss albino (mouse) assessed as protection against acetic acid-induced writhing response at 20 mg/kg, po administered 30 min prior to acetic acid challenge measured at 1 hr relative to control. It counts as functional. A general note: In writhing tests, fewer writhes than in controls are read as antinociception.

Data set [3] concerns Mus musculus. Put plainly: Analgesic activity in Mus musculus Swiss albino (mouse) assessed as protection against acetic acid-induced writhing response at 20 mg/kg, po administered 30 min prior to acetic acid challenge measured at 0.5 hr relative to control. It counts as functional.
The subject of data set [4] is Mus musculus. Put plainly: Ulcerogenic activity in Mus musculus Swiss albino (mouse) stomach assessed as decrease in ulcer spots at 60 mg/kg, po after 17 hr by hematoxylin-eosin staining relative to vehicle-treated control. It counts as toxicity, organism-based. Also on record: dose 60 mg/kg, route oral. The settings on record: in vivo.

As for `COc1ccccc1-c1cc(-c2cc3cc(Br)ccc3oc2=O)nc(NCN2CCOCC2)n1`, the Activity in the data set on Mus musculus [1] is on record as 37.61%; in the data set with Mus musculus [2], 36.13%; with Mus musculus [3] it was 41.97%.
In the same order, the values of `COc1cccc(-c2cc(-c3cc4cc(Br)ccc4oc3=O)nc(NCN3CCOCC3)n2)c1` are 47.42%, 53.41% and 60.62%.
With `O=c1oc2ccc(Br)cc2cc1-c1cc(-c2ccc(Cl)cc2Cl)nc(NCN2CCOCC2)n1`, the Activity was 69.6% in the data set with Mus musculus [1], “Non-toxic” in the data set with Mus musculus [4], 85.36% in the data set on Mus musculus [2] and 95.34% in the data set on Mus musculus [3].
On to `O=c1oc2ccc(Br)cc2cc1-c1cc(-c2c(Cl)cccc2Cl)nc(NCN2CCOCC2)n1`, for which the Activity in the data set with Mus musculus [1] is reported as 75.26%; in the data set with Mus musculus [2] it was 87.96%; in the data set on Mus musculus [3], 95.34%.
In the same order, the values of `O=c1oc2ccc(Br)cc2cc1-c1cc(-c2cccc(Cl)c2)nc(NCN2CCCCC2)n1` are 51.53%, 83.25% and 81.87%.
In the same order, the values of `O=c1oc2ccc(Br)cc2cc1-c1cc(-c2ccc(Cl)cc2)nc(NCN2CCCCC2)n1` are 61.86%, 77.47% and 83.94%.
The matching figures for `O=c1oc2ccc(Br)cc2cc1-c1cc(-c2ccccc2Br)nc(NCN2CCCCC2)n1`: 15.47%, 40.31% and 55.96%.
As for `O=c1oc2ccc(Br)cc2cc1-c1cc(-c2cccc(Br)c2)nc(NCN2CCCCC2)n1`, the Activity with Mus musculus [1] stood at 39.16%; in the data set on Mus musculus [2], 37.7%; in the data set with Mus musculus [3], 41.97%.
With `O=c1oc2ccc(Br)cc2cc1-c1cc(-c2ccc(Br)cc2)nc(NCN2CCCCC2)n1`, the Activity in the data set with Mus musculus [1] is given as 32.47%; in the data set with Mus musculus [2], 41.88%; in the data set on Mus musculus [3], 49.74%.
The matching figures for `COc1ccccc1-c1cc(-c2cc3cc(Br)ccc3oc2=O)nc(NCN2CCCCC2)n1`: 33.5%, 65.44% and 77.72%.
In the same order, the values of `COc1cccc(-c2cc(-c3cc4cc(Br)ccc4oc3=O)nc(NCN3CCCCC3)n2)c1` are 35.05%, 63.87% and 74.09%.
The matching figures for `O=c1oc2ccc(Br)cc2cc1-c1cc(-c2ccc(Cl)cc2Cl)nc(NCN2CCCCC2)n1`: 38.14%, 69.12% and 83.94%.
For the compound `O=c1oc2ccc(Br)cc2cc1-c1cc(-c2c(Cl)cccc2Cl)nc(NCN2CCCCC2)n1`, the Activity was found to be 15.47% with Mus musculus [1], 18.32% in the data set with Mus musculus [2] and 26.43% in the data set on Mus musculus [3].
In the same order, the values of `O=c1oc2ccc(Br)cc2cc1-c1cc(-c2ccccc2Cl)nc(NCN2CCOCC2)n1` are 64.43%, 87.97% and 97.93%.
The matching figures for `O=c1oc2ccc(Br)cc2cc1-c1cc(-c2cccc(Cl)c2)nc(NCN2CCOCC2)n1`: 40.71%, 62.3% and 69.95%.
The matching figures for `O=c1oc2ccc(Br)cc2cc1-c1cc(-c2ccc(Cl)cc2)nc(NCN2CCOCC2)n1`: 55.68%, 89.54% and 98.45%.
For `O=c1oc2ccc(Br)cc2cc1-c1cc(-c2ccccc2Br)nc(NCN2CCOCC2)n1`, the Activity with Mus musculus [1] stood at 47.94%; in the data set on Mus musculus [2], 50.27%; in the data set with Mus musculus [3], 59.59%.
In the case of `O=c1oc2ccc(Br)cc2cc1-c1cc(-c2cccc(Br)c2)nc(NCN2CCOCC2)n1`, the Activity came out at 47.42% in the data set on Mus musculus [1], 45.55% with Mus musculus [2] and 52.33% with Mus musculus [3].
For `O=c1oc2ccc(Br)cc2cc1-c1cc(-c2ccc(Br)cc2)nc(NCN2CCOCC2)n1`, the Activity stood at 46.89% in the data set with Mus musculus [1], 51.3% in the data set on Mus musculus [2] and 61.66% in the data set on Mus musculus [3].
On to `O=c1oc2ccc(Br)cc2cc1-c1cc(-c2ccccc2Cl)nc(NCN2CCCCC2)n1`, for which the Activity in the data set on Mus musculus [1] stood at 52.06%; in the data set on Mus musculus [2], 84.83%; in the data set with Mus musculus [3] it was 89.64%.
`O=C([O-])Cc1ccccc1Nc1c(Cl)cccc1Cl.[Na+]` [DICLOFENAC SODIUM]: the Activity with Mus musculus [1] is on record as 84.53%; in the data set on Mus musculus [2], 94.25%; with Mus musculus [3], 95.87%.
